Literature values in patent publication US20220134131A1, “ENERGY AUGMENTATION STRUCTURES FOR MEASURING AND THERAPEUTIC USES” (IMMUNOLIGHT, LLC, priority 2019, published 2022).

Test system: HT-29 cells

OO [H2O2, hydrogen peroxide]
effect of application on HT-29 cells: caused their death
